Like-named read-outs stand apart in the source and are kept apart here.
Tests used:
[1] = target: T1, CDK7 (TFIIH) (Homo sapiens, UniProt P50613); assay: In vitro kinase assay, CDK7 (TFIIH); format: biochemical
T1 construct: TFIIH was captured from HeLa nuclear extract; endogenous in cells; host or cells: HeLa nuclear extract
Experimental: Kinase Assays. Data was quantified with ImageJ and plotted and fitted with GraphPad Prism 6.0. For STAT1 transactivation domain (TAD), 750 ng of GST-STAT1 TAD (residues 639-750) was incubated with ˜50 ng recombinant CDK8 module at 30° C. for 8 min in kinase buffer (25 mM Tris pH 8, 2 mM DTT, 100 μM cold ATP, 100 mM KCl, 10 mM MgCl2 and 2.5 μCi [γ-^32P] ATP (Perkin Elmer) per reaction). […] 12% SDS-PAGE gels were subsequently silver stained, exposed for 18 h on a Phosphor Screen and imaged (Typhoon 9400, GE Life Sciences). For pol II CTD, 400 ng of GST-CTD (murine sequence) was incubated with ˜40 ng recombinant CDK8 module, 25 ng TFIIH, or 40 ng P-TEFb at 30° C. for 60 min in kinase buffer. Kinase amounts were chosen to give similar total pol II CTD signal. 9% SDS-PAGE gels were silver stained and exposed as above. In vitro FLAG-CDK8 kinase assays used ˜40 ng kinase and 500 ng GST-CTD. For STAT1 or Smad2/3, cells were treated with compound for 1 h followed by IFN-γ or TGF-β1 for 1 h, then washed twice with cold PBS, and lysed (RIPA buffer with inhibitors R0278, P8340, P0044, P5762 Sigma-Aldrich). Standard immunoblotting was then performed with one immunoblot shown. All experiments were performed twice.
Protein Purification. Buffers for purification and elution of recombinant proteins included 0.25 mM PMSF, 1 mM DTT, 1 mM benzamidine, and 1 mM sodium metabisulfite. […]

[2] = target: T2, ROCK1 in MOLM-14 cell lysate (Homo sapiens, UniProt Q13464); assay: Native kinase capture immunoblot, ROCK1; format: binding
T2 construct: endogenous in cells; host or cells: MOLM-14 cell lysate
T2 sequence (Q13464 whole entry): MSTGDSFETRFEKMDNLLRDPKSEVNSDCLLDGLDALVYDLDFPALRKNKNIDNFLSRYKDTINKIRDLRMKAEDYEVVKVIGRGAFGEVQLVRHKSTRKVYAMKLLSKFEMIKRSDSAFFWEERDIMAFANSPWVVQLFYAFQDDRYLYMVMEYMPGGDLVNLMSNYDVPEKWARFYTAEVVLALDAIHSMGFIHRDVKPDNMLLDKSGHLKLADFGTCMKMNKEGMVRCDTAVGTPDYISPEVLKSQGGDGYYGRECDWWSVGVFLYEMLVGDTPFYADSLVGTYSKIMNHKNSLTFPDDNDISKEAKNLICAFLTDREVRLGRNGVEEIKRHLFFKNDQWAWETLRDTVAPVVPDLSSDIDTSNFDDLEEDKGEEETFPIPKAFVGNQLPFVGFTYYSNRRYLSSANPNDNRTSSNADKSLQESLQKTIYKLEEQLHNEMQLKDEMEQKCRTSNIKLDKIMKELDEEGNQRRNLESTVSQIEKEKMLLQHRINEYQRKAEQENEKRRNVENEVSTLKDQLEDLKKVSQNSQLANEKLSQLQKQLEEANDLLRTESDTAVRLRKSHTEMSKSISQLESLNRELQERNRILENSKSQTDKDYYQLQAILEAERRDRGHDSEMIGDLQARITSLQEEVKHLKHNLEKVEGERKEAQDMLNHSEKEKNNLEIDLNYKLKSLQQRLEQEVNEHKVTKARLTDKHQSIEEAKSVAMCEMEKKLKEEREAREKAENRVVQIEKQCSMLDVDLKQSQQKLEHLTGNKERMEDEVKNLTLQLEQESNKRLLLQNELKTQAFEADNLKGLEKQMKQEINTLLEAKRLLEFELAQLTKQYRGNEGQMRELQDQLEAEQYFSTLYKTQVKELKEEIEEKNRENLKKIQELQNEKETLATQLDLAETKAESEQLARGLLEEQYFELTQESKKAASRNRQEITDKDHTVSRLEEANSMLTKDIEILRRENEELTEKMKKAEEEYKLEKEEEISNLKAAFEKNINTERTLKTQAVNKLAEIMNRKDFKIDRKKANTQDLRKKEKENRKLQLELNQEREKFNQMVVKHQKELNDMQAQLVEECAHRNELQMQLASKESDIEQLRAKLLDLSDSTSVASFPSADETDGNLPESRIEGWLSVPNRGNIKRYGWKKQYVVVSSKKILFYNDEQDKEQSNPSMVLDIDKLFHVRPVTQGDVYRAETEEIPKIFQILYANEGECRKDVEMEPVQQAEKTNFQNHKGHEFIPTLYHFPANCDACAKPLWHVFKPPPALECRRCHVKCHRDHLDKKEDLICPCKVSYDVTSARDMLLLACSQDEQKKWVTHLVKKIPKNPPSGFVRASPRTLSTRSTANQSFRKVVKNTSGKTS
Experimental: Native Kinase Capture Immunoblot and Native Kinome-Wide Profiling. […] Experiment was performed twice with one immunoblot shown.

[3] = system: K562; assay: Cell growth assay, K562; format: cell-based; settings: Homo sapiens
Experimental: All media was supplemented with 100 U/mL penicillin and 100 μg/mL streptomycin. Human cancer cell lines were grown in the following media: MV4; 11, K562, MOLM-14 in RPMI-1640, 10% FBS; SKNO-1 in RPMI-1640, 10% FBS, and 10 ng/mL GM-CSF; MV4;11 and K562 were from ATCC. SKNO-1 was from DSMZ.
(§1) Cell Culture. All media was supplemented with 100 U/mL penicillin and 100 μg/mL streptomycin. Human cancer cell lines were grown in the following media: MV4; 11, RS4; 11, K562, HEL, MOLM-14, MEG-01 in RPMI-1640, 10% FBS; SET-2 in RPMI-1640, 20% FBS; UKE-1 in RPMI-1640, 10% FBS, 10% horse serum and 1 μM hydrocortisone; SKNO-1 and TF-1 in RPMI-1640, 10% FBS, and 10 or 2 ng/mL GM-CSF, respectively; HaCaT in DMEM, 10% FBS; and HCT116 in McCoy's 5 A, 10% FBS (proliferation assay) or DMEM, 10% FBS (gene expression study). HepG2, MV4;11, RS4;11, MEG-01, TF-1, HCT116 and K562 were from ATCC. SKNO-1 was from DSMZ. HEL, UKE-1, and SET-2 were provided by Ross L. Levine and HaCaT, MV4;11-mCLP, and MOLM-14 by Van Wilson, Andrew L. Kung, and Scott A. Armstrong, respectively. MOLM-14 cells were authenticated by STR profiling and flow cytometry and all cell lines were routinely tested and found to be negative for mycoplasma.

[4] = system: HCT116; assay: Cell growth assay, HCT116 (CellTiter-Blue); format: cell-based; settings: Homo sapiens
Experimental: as §1

Structure (SMILES): CN(C)[C@H]1C[C@@]23CC[C@@]4(O2)C(=CC[C@@]2(C)[C@@H](c5ccc6ccncc6c5)CC[C@H]24)C=C3[C@@H](O)[C@@H]1O [CA, cortistatin A]
- inhibition of CDK7 (TFIIH) [1]: did not inhibit
- binding of ROCK1 (no binding up to) [2]: > 2500 nM
- GI50 ([3]; K562, 240 h, CA, after 10 days, read-out: Mean GI50 (nM), K562): > 1000 nM
- GI50 ([3]; K562, 240 h, read-out: K562 GI50 day 10): > 1000 nM
- GI50 ([3]; K562, Table 5, read-out: GI50 (nM), K562): > 1000 nM
- GI50 ([4]; HCT-116, 168 h, after 7 days, read-out: Mean GI50 (nM), HCT116): > 1000 nM
- GI50 ([4]; HCT-116, Table 5, read-out: GI50 (nM), HCT116): > 1000 nM

— patent US10273240B2, “Cortistatin analogues, syntheses, and uses thereof” (President and Fellows of Harvard College, priority 2015, dated 2019)
